# Laboratory results from patent US12459951B2, “Compounds that interact with RAS superfamily proteins for treatment of cancers, inflammatory diseases, rasopathies, and fibrotic disease” (SHY Therapeutics, LLC, priority 2022, dated 2025).
# Key:
# Akt phosphorylation = experiment: Akt Phosphorylation Assay (western blot), Panc-1; assay type: cell-based, human; settings: at 10 μM, * = activation
# Summary of the method: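 Phospho-Akt (Ser473) was measured by western blot in lysates of KRas G12D Panc-1 cells exposed to test compound for 6 h at 37 °C, either at 10 μM final with 0.3% DMSO or as serial dilutions for IC50. One format used overnight 0.5% FBS starvation followed by a 15 min pulse of 1.5 ng/ml EGF. The other used cells in 10% FBS with no stimulation.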
# KRas G12D mutant = experiment: Ras GTP Binding Domain Inhibition Assay (Ras Superfamily Assay); settings: at 20 μM; for KRas G12D mutant + SOS: % inh.: with SOS; for KRas G12D mutant: % inh.: without SOS
# Summary of the method: (§1)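 Binding of 100 nM fluorescent GTP (Cy3 or Cy5, 45 min, room temperature) was read after washes from plate-captured His-tagged protein. Beforehand, compounds at 20 μM or in dilution series for IC50 sat 3 h on the protein in Tris buffer pH 7.4 or 7.0 with 1% DMSO, Sos GEF optionally added for the last hour.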
# KRas wild type = experiment: as above; settings: at 20 μM; for KRas wild type + SOS: % inh.: with SOS; for KRas wild type: % inh.: without SOS
# Summary of the method: as §1
# Rac-1 = target: T1, Rac-1 (Homo sapiens, UniProt P63000); experiment: as above; settings: read-out: Rac-1: % inh.
# T1 construct: made in house
# Summary of the method: as §1
KRas G12D mutant + SOS: % inh. (KRas G12D mutant),KRas G12D mutant: % inh. (KRas G12D mutant),KRas wild type + SOS: % inh. (KRas wild type),KRas wild type: % inh. (KRas wild type),inhibition at 20 µM (Rac-1),Structure (SMILES),% inh of Akt phosphorylation in Panc-1 (Akt phosphorylation)
D (D = 76-100% inhibition),D (D = 76-100% inhibition),D (D = 76-100% inhibition),D (D = 76-100% inhibition),76 to 100%,"Cc1c(-c2ccn(C)n2)cn2nc(-c3nccn3C)nc(Nc3cc4c(cn3)CCO4)c12 [Compound 221, N-(5-Methyl-2-(1-methyl-1H-imidazol-2-yl)-6-(1-methyl-1H-pyrazol-3-yl)pyrrolo[2,1-f][1,2,4]triazin-4-yl)-2,3-dihydrofuro[3,2-c]pyridin-6-amine]",D* (85-100% activation)
D (D = 76-100% inhibition),D (D = 76-100% inhibition),D (D = 76-100% inhibition),D (D = 76-100% inhibition),76 to 100%,"Cc1c(-c2ccn(C)n2)cn2nc(-c3nccn3C)nc(Nc3cc(N4CCOCC4)ccn3)c12 [Compound 222, 5-Methyl-2-(1-methyl-1H-imidazol-2-yl)-6-(1-methyl-1H-pyrazol-3-yl)-N-(4-morpholinopyridin-2-yl)pyrrolo[2,1-f][1,2,4]triazin-4-amine]",D* (85-100% activation)
A (A = 1-25% inhibition),B (B = 26-49% inhibition),0 (0 = 0% inhibition),B (B = 26-49% inhibition),26 to 49%,"COc1ccnc(N(C)c2nc(-c3nccn3C)nn3cc(-c4ccn(C)n4)c(C)c23)c1 [Compound 223, N-(4-Methoxypyridin-2-yl)-N,5-dimethyl-2-(1-methyl-1H-imidazol-2-yl)-6-(1-methyl-1H-pyrazol-3-yl)pyrrolo[2,1-f][1,2,4]triazin-4-amine]",B (26-49% inhibition)
D (D = 76-100% inhibition),D (D = 76-100% inhibition),D (D = 76-100% inhibition),D (D = 76-100% inhibition),76 to 100%,"COc1ccc(Nc2nc(-c3nccn3C)nn3cc(-c4ccn(C)n4)c(C)c23)nc1 [Compound 224, N-(5-Methoxypyridin-2-yl)-5-methyl-2-(1-methyl-1H-imidazol-2-yl)-6-(1-methyl-1H-pyrazol-3-yl)pyrrolo[2,1-f][1,2,4]triazin-4-amine]",D* (85-100% activation)
A (A = 1-25% inhibition),B (B = 26-49% inhibition),A (A = 1-25% inhibition),A (A = 1-25% inhibition),1 to 25%,"COc1ccc(N(C)c2nc(-c3nccn3C)nn3cc(-c4ccn(C)n4)c(C)c23)nc1 [Compound 225, N-(5-Methoxypyridin-2-yl)-N,5-dimethyl-2-(1-methyl-1H-imidazol-2-yl)-6-(1-methyl-1H-pyrazol-3-yl)pyrrolo[2,1-f][1,2,4]triazin-4-amine]",A* (1-25% activation)
D (D = 76-100% inhibition),D (D = 76-100% inhibition),D (D = 76-100% inhibition),D (D = 76-100% inhibition),76 to 100%,"Cc1ccc(Nc2nc(-c3nccn3C)nn3cc(-c4ccn(C)n4)c(C)c23)nc1 [Compound 226, 5-Methyl-2-(1-methyl-1H-imidazol-2-yl)-6-(1-methyl-1H-pyrazol-3-yl)-N-(5-methylpyridin-2-yl)pyrrolo[2,1-f][1,2,4]triazin-4-amine]",D* (85-100% activation)
